Like-named read-outs stand apart in the source and are kept apart here.
Key:
[1] = biological target: PI3K (Homo sapiens, UniProt P42336); test: Fluorescence polarization assay for PI3K; type: biochemical;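 also: PI3K kinase reaction on PIP2 with ATP, 30-60 min, product sensed by GST-GRP with red probe in fluorescence polarization (mP), controls without enzyme and at zero time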
[2] = tested on: prostate line LNCap; test: In vitro cell culture growth assay (MTS), LNCap; type: cell-based, human; conditions: Homo sapiens, 72 h, LNCap cells, three days after drug treatment
[3] = tested on: breast line MDA468; test: In vitro cell culture growth assay (MTS), MDA468; type: cell-based, human; conditions: Homo sapiens, 72 h, MDA468 cells, three days after drug treatment
How it was run: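 MDA468 or LNCap cells received inhibitors one day after plating and were grown for three days. Viable cell density read by MTS conversion, absorbance 490 nm, expressed as percent of control growth versus vehicle-treated cells on the same plate.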

Sequence of PI3K (P42336 whole entry): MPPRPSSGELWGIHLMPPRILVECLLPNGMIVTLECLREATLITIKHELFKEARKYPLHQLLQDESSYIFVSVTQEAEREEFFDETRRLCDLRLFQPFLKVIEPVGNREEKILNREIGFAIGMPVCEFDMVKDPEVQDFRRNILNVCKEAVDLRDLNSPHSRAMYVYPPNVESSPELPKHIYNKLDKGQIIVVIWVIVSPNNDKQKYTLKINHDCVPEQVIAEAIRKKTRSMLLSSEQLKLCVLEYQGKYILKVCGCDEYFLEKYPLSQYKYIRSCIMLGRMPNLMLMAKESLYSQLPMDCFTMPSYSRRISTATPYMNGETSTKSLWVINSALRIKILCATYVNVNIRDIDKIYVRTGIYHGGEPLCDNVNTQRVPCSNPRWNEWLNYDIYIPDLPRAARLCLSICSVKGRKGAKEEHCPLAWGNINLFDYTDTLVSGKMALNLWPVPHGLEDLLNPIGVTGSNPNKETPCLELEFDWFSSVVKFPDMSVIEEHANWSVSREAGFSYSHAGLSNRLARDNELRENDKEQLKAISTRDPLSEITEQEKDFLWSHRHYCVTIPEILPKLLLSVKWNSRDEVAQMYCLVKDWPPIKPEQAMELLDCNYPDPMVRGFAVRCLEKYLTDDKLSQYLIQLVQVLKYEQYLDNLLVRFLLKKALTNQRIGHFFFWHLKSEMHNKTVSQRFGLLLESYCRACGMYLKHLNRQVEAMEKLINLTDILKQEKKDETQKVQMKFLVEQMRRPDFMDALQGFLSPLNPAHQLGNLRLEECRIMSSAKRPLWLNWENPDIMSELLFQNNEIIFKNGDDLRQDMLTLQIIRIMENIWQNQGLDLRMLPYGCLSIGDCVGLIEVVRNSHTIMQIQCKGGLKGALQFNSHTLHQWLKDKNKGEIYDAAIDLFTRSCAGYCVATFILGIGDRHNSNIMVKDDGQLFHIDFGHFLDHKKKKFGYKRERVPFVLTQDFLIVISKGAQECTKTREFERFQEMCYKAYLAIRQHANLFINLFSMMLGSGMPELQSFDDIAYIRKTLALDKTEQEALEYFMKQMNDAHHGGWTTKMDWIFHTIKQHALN
Sequence of PI3K (P27986 whole entry partner): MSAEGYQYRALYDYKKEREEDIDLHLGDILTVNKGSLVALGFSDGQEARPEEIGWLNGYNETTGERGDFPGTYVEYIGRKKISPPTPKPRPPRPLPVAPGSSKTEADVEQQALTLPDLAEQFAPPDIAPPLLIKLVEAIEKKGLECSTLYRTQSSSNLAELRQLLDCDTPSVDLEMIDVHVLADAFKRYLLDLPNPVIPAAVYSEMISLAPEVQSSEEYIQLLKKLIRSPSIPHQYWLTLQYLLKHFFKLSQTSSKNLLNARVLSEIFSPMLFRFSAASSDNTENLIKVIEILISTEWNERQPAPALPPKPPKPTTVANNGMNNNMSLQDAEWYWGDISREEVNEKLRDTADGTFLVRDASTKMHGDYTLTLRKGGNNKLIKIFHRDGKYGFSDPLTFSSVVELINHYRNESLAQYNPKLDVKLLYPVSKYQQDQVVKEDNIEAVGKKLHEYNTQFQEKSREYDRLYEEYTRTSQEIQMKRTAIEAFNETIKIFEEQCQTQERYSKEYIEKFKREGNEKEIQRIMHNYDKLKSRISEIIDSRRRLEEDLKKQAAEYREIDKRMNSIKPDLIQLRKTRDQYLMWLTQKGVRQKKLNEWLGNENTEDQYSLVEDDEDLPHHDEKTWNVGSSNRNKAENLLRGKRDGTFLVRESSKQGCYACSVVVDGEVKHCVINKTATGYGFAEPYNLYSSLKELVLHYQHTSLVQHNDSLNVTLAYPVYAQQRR

Compound	IC50 ([1]; PI3Kα, read-out: PI3Kα IC50) [nM]	IC50 ([2]; LNCaP) [nM]	IC50 [3] [nM]	IC50 ([1]; PI3Kα IC50, PI3Kα) [nM]	IC50 [2] [nM]
CCCOC(=O)N1CCC(n2ncc3c(N4CCOCC4)nc(-c4ccc(NC(=O)NC5CC5)cc4)nc32)CC1 [Compound 856, propyl 4-(6-{4-[(cyclopropylcarbamoyl)amino]phenyl}-4-morpholin-4-yl-1H-pyrazolo[3,4-d]pyrimidin-1-yl)piperidine-1-carboxylate]	770	90	510	–	–
CCCOC(=O)N1CCC(n2ncc3c(N4CCOCC4)nc(-c4ccc(NC(=O)OC)cc4)nc32)CC1 [Compound 857, propyl 4-(6-{4-[(methoxycarbonyl)amino]phenyl}-4-morpholin-4-yl-1H-pyrazolo[3,4-d]pyrimidin-1-yl)piperidine-1-carboxylate]	2770	1600	5000	–	–
CCCOC(=O)N1CCC(n2ncc3c(N4CCOCC4)nc(-c4ccc(NC(=O)NCC5CC5)cc4)nc32)CC1 [Compound 858, propyl 4-[6-(4-{[(cyclopropylmethyl)carbamoyl]amino}phenyl)-4-morpholin-4-yl-1H-pyrazolo[3,4-d]pyrimidin-1-yl]piperidine-1-carboxylate]	2150	800	3200	–	–
COC(=O)N1CCC(n2ncc3c(N4CCOCC4)nc(-c4ccc(NC(=O)Nc5ccc(F)cc5)cc4)nc32)CC1 [Compound 859, methyl 4-[6-(4-{[(4-fluorophenyl)carbamoyl]amino}phenyl)-4-morpholin-4-yl-1H-pyrazolo[3,4-d]pyrimidin-1-yl]piperidine-1-carboxylate]	28	27	78	–	–
COC(=O)N1CCC(n2ncc3c(N4CCOCC4)nc(-c4ccc(NC(=O)Nc5ccccc5F)cc4)nc32)CC1 [Compound 860, methyl 4-[6-(4-{[(2-fluorophenyl)carbamoyl]amino}phenyl)-4-morpholin-4-yl-1H-pyrazolo[3,4-d]pyrimidin-1-yl]piperidine-1-carboxylate]	38	120	390	–	–
COC(=O)N1CCC(n2ncc3c(N4CCOCC4)nc(-c4ccc(NC(=O)Nc5ccc(F)cc5F)cc4)nc32)CC1 [Compound 861, methyl 4-[6-(4-{[(2,4-difluorophenyl)carbamoyl]amino}phenyl)-4-morpholin-4-yl-1H-pyrazolo[3,4-d]pyrimidin-1-yl]piperidine-1-carboxylate]	250	110	580	–	–
COC(=O)N1CCC(n2ncc3c(N4CCOCC4)nc(-c4ccc(NC(=O)Nc5ccc(F)nc5)cc4)nc32)CC1 [Compound 862, methyl 4-[6-(4-{[(6-fluoropyridin-3-yl)carbamoyl]amino}phenyl)-4-morpholin-4-yl-1H-pyrazolo[3,4-d]pyrimidin-1-yl]piperidine-1-carboxylate]	107	< 23	< 88.5	–	–
COC(=O)N1CCC(n2ncc3c(N4CCOCC4)nc(-c4ccc(NC(=O)Nc5cccnc5F)cc4)nc32)CC1 [Compound 863, methyl 4-[6-(4-{[(2-fluoropyridin-3-yl)carbamoyl]amino}phenyl)-4-morpholin-4-yl-1H-pyrazolo[3,4-d]pyrimidin-1-yl]piperidine-1-carboxylate]	266	170	680	–	–
COC(=O)N1CCC(n2ncc3c(N4CCOCC4)nc(-c4ccc(NC(=O)Nc5ccncc5F)cc4)nc32)CC1 [Compound 864, methyl 4-[6-(4-{[(3-fluoropyridin-4-yl)carbamoyl]amino}phenyl)-4-morpholin-4-yl-1H-pyrazolo[3,4-d]pyrimidin-1-yl]piperidine-1-carboxylate]	116	27.4	98	–	–
COC(=O)N1CCC(n2ncc3c(N4CCOCC4)nc(-c4ccc(NC(=O)OCCF)cc4)nc32)CC1 [Compound 865, methyl 4-[6-(4-{[(2-fluoroethoxy)carbonyl]amino}phenyl)-4-morpholin-4-yl-1H-pyrazolo[3,4-d]pyrimidin-1-yl]piperidine-1-carboxylate]	2950	680	4100	–	–
COC(=O)N1CCC(n2ncc3c(N4CCOCC4)nc(-c4ccc(NC(=O)Oc5ccccc5F)cc4)nc32)CC1 [Compound 866, methyl 4-[6-(4-{[(2-fluorophenoxy)carbonyl]amino}phenyl)-4-morpholin-4-yl-1H-pyrazolo[3,4-d]pyrimidin-1-yl]piperidine-1-carboxylate]	–	–	30000	12000	12000
CNC(=O)Nc1ccc(-c2nc(N3CCOCC3)c3cnn(C4CCSCC4)c3n2)cc1 [Compound 867, 1-methyl-3-{4-[4-morpholin-4-yl-1-(tetrahydro-2H-thiopyran-4-yl)-1H-pyrazolo[3,4-d]pyrimidin-6-yl]phenyl}urea]	47	< 18.5	< 68.5	–	–
CNC(=O)Nc1ccc(-c2nc(N3CCOCC3)c3cnn(C4CC[S+]([O-])CC4)c3n2)cc1 (stereo not drawn) [Compound 868, 1-methyl-3-{4-[4-morpholin-4-yl-1-(1-oxidotetrahydro-2H-thiopyran-4-yl)-1H-pyrazolo[3,4-d]pyrimidin-6-yl]phenyl}urea]	80	1200	720	–	–
CNC(=O)Nc1ccc(-c2nc(N3CCOCC3)c3cnn(C4CCS(=O)(=O)CC4)c3n2)cc1 [Compound 869, 1-{4-[1-(1,1-dioxidotetrahydro-2H-thiopyran-4-yl)-4-morpholin-4-yl-1H-pyrazolo[3,4-d]pyrimidin-6-yl]phenyl}-3-methylurea]	74	540	590	–	–
CC(C)(C)OC(=O)N1CCC[C@H](n2ncc3c(N4CCOCC4)nc(-c4ccc(N)cc4)nc32)C1 [Compound 870, tert-butyl (3S)-3-[6-(4-aminophenyl)-4-morpholin-4-yl-1H-pyrazolo[3,4-d]pyrimidin-1-yl]piperidine-1-carboxylate]	549	7600	26000	–	–
CC(C)(C)OC(=O)N1CCC[C@@H](n2ncc3c(N4CCOCC4)nc(-c4ccc(N)cc4)nc32)C1 [Compound 871, tert-butyl (3R)-3-[6-(4-aminophenyl)-4-morpholin-4-yl-1H-pyrazolo[3,4-d]pyrimidin-1-yl]piperidine-1-carboxylate]	4300	7500	2300	–	–
CNC(=O)Nc1ccc(-c2nc(N3CCOCC3)c3cnn([C@H]4CCCN(C(=O)OC(C)(C)C)C4)c3n2)cc1 [Compound 872, tert-butyl (3S)-3-(6-{4-[(methylcarbamoyl)amino]phenyl}-4-morpholin-4-yl-1H-pyrazolo[3,4-d]pyrimidin-1-yl)piperidine-1-carboxylate]	169	270	1000	–	–
CNC(=O)Nc1ccc(-c2nc(N3CCOCC3)c3cnn([C@H]4CCCNC4)c3n2)cc1 [Compound 873, 1-methyl-3-(4-{4-morpholin-4-yl-1-[(3S)-piperidin-3-yl]-1H-pyrazolo[3,4-d]pyrimidin-6-yl}phenyl)urea]	74	410	730	–	–
CNC(=O)Nc1ccc(-c2nc(N3CCOCC3)c3cnn([C@@H]4CCCN(C(=O)OC(C)(C)C)C4)c3n2)cc1 [Compound 874, tert-butyl (3R)-3-(6-{4-[(methylcarbamoyl)amino]phenyl}-4-morpholin-4-yl-1H-pyrazolo[3,4-d]pyrimidin-1-yl)piperidine-1-carboxylate]	294	400	1100	–	–
CNC(=O)Nc1ccc(-c2nc(N3CCOCC3)c3cnn([C@@H]4CCCNC4)c3n2)cc1 [Compound 875, 1-methyl-3-(4-{4-morpholin-4-yl-1-[(3R)-piperidin-3-yl]-1H-pyrazolo[3,4-d]pyrimidin-6-yl}phenyl)urea]	46	1100	1250	–	–
CNC(=O)Nc1ccc(-c2nc(N3CCOCC3)c3cnn(C4CCN(C(=O)OCC(C)(C)C)CC4)c3n2)cc1 [Compound 876, 2,2-dimethylpropyl 4-(6-{4-[(methylcarbamoyl)amino]phenyl}-4-morpholin-4-yl-1H-pyrazolo[3,4-d]pyrimidin-1-yl)piperidine-1-carboxylate]	87	110	350	–	–
CC(C)(C)COC(=O)N1CCC(n2ncc3c(N4CCOCC4)nc(-c4ccc(NC(=O)Nc5cccnc5)cc4)nc32)CC1 [Compound 877, 2,2-dimethylpropyl 4-(4-morpholin-4-yl-6-{4-[(pyridin-3-ylcarbamoyl)amino]phenyl}-1H-pyrazolo[3,4-d]pyrimidin-1-yl)piperidine-1-carboxylate]	32	120	400	–	–
CNC(=O)Nc1ccc(-c2nc(N3CCOCC3)c3cnn(C4CCN(C(=O)OCCF)CC4)c3n2)cc1 [Compound 878, 2-fluoroethyl 4-(6-{4-[(methylcarbamoyl)amino]phenyl}-4-morpholin-4-yl-1H-pyrazolo[3,4-d]pyrimidin-1-yl)piperidine-1-carboxylate]	54	40	120	–	–
O=C(Nc1ccc(-c2nc(N3CCOCC3)c3cnn(C4CCN(C(=O)OCCF)CC4)c3n2)cc1)Nc1cccnc1 [Compound 879, 2-fluoroethyl 4-(4-morpholin-4-yl-6-{4-[(pyridin-3-ylcarbamoyl)amino]phenyl}-1H-pyrazolo[3,4-d]pyrimidin-1-yl)piperidine-1-carboxylate]	12	3.9	34	–	–
CNC(=O)Nc1ccc(-c2nc(N3CCOCC3)c3cnn(C4CCN(C(=O)OCc5ccccc5)CC4)c3n2)cc1 [Compound 880, benzyl 4-(6-{4-[(methylcarbamoyl)amino]phenyl}-4-morpholin-4-yl-1H-pyrazolo[3,4-d]pyrimidin-1-yl)piperidine-1-carboxylate]	20	30	220	–	–

Reference: patent publication US20080234262A1 (Wyeth, priority 2007, published 2008)
